From article PMC10818921, “Validation of Liquid Chromatography Coupled with Tandem Mass Spectrometry for the Determination of 12 Tyrosine Kinase Inhibitors (TKIs) and Their Application to Therapeutic Drug Monitoring in Adult and Pediatric Populations” (Pharmaceutics, 2023)
Read-outs that look alike come from different tables or passages of the source.

Legend:
[1] = Therapeutic drug monitoring: steady-state residual plasma concentrations by LC-MS/MS; assay type: in vivo, human; details: for Concentration range CI 95% / IQR / Mean concentration / Median concentration: residual plasma concentration at steady state; for comparison of dose–weight-adjusted concentrations between adult and pediatric groups: Mann–Whitney test, p-value < 0.0001 where significant
Procedure: For each calibration sample, an adapted volume of working solution was added and evaporated. Then, 150 µL of IS methanolic solution was added to 50 µL of plasma sample (blank plasma for calibration sample or patient plasma) to precipitate proteins. After vortex mixing and 10 min of centrifugation, the supernatant was transferred into injection vials, and 10 µL was injected into the chromatographic system.
Chromatography was performed on a Dionex Ultimate 3000 Pump (ThermoFisher, les Ulis, France) using a Kinetex C18 Polar column (100 × 2.1 mm, 2.6 µm particle size) heated at 40 °C. The mobile phase A was made with 2 mM of ammonium formate in 0.1% formic acid in ultra-pure water and stored at +4 °C for a maximum of one week. […] The gradient was set as follows: 10 to 40% of B from 0 to 1 min, then 40 to 90% of B in 1 min, and keeping this for 2 min before resetting to 10% B in 1 min. An equilibration time of one minute at 10% mobile phase B at the end of the chromatographic run allowed the column to be equilibrated before the next analysis.
The compounds were detected using an Altis® triple quadrupole tandem mass spectrometer (ThermoFisher Scientific, Les Ulis, France) equipped with an electrospray ionization (ESI) source set in positive ionization mode with a potential of +3.5 kV. Nitrogen was used as cladding and auxiliary gas at a pressure of 30 and 10 arbitrary units (AU), respectively. The collision gas, argon, was used at a pressure of 1.5 mTorr. The temperature of the ion transfer capillary was set at 350 °C. Data were collected in multiple reaction monitoring mode (MRM) with two transitions (m/z) per compound. Xcalibur® (v 4.2.47) and LC Quan® (v 2.7.0) software (ThermoFisher Scientific) were used for data acquisition and processing.
The study was conducted in accordance with the Declaration of Helsinki and approved by the local ethics committee.
Populations treated with each TKI are described in Table 4.
Blood samples were collected in a steady state (i.e., a minimum of 2 weeks after the initiation of therapy or dose adjustment) just prior to dosing. The samples were collected in lithium heparin tubes without a separator and were immediately centrifuged, decanted, and frozen at −20 °C before LC-MS/MS analysis.
A Mann–Whitney […] was performed to compare dose–weight-adjusted concentrations between adult and pediatric groups. Results are illustrated in box-and-whiskers plots. GraphPad Prism v.8.3.0 Software (San Diego, CA, USA) was used to process and visualize data.

[2] = Stability of TKI methanolic solutions, 7 days at −20 °C; assay type: physicochemical; details: for bias, stability of TKI methanolic solutions: QCs made with 7-day-old methanolic solutions; for storage of methanolic working solutions: −20 °C for 7 days
Procedure: To evaluate TKI stability in methanolic solutions, the four QC levels were realized with seven-day-old solutions and were analyzed six times. The accuracy and precision of the samples have to be in conformity with less than 15% variation.

[3] = cited from earlier work; for Target Concentrations, Cmin / Target Concentrations, Cmax: adults
[4] = cited from earlier work
[5] = cited from earlier work; remark: listed apart in the source

Dose–weight-adjusted mean concentration ([1]; adults) | Dose–weight-adjusted median concentration ([1]; adults) | Concentration range CI 95% ([1]; adults) | IQR ([1]; adults) | Mean concentration ([1]; adults) | Median concentration ([1]; adults) | bias, stability of TKI methanolic solutions [2] | storage of methanolic working solutions [2] | Dose–weight-adjusted mean concentration ([1]; children) | Dose–weight-adjusted median concentration ([1]; children) | Concentration range CI 95% ([1]; children) | IQR ([1]; children) | Mean concentration ([1]; children) | Median concentration ([1]; children) | Compound | Target Concentrations, Cmin [3] | Target Concentrations, Cmax [3] | comparison of dose–weight-adjusted concentrations between adult and pediatric groups [1] | also measured
17.3 ng/mL/mg/kg | 16.7 ng/mL/mg/kg | [292–424] ng/mL | [302–408] ng/mL | 358 ng/mL | 346 ng/mL | – | – | – | – | – | – | – | – | CCc1cc2c(cc1N1CCC(N3CCOCC3)CC1)C(C)(C)c1[nH]c3cc(C#N)ccc3c1C2=O [Alectinib, alectinib] | – | – | – | –
– | – | – | – | – | – | ≥ 15% | must be prepared extemporaneously | – | – | – | – | – | – | C[C@@H](Oc1cc(-c2cnn(C3CCNCC3)c2)cnc1N)c1c(Cl)ccc(F)c1Cl [Crizotinib, crizotinib] | Cmin ≥ 235 ng/mL | – | – | stability at −20 °C for 7 days ([2]; methanolic solutions, CQ3): not stable; stability in plasma [4]: minimum of one month
196.7 ng/mL/mg/kg | 211.4 ng/mL/mg/kg | [122–320] ng/mL | – | 221 ng/mL | 207 ng/mL | ≥ 15% | must be prepared extemporaneously | – | – | – | – | – | – | C=CC(=O)Nc1cc(Nc2nccc(-c3cn(C)c4ccccc34)n2)c(OC)cc1N(C)CCN(C)C [Osimertinib, osimertinib] | – | – | – | Target Concentrations, Cmin ([3]; 40 mg dosage): ≥ 90 ng/mL; Target Concentrations, Cmin ([3]; 80 mg dosage): ≥ 160 ng/mL; stability in plasma [4]: minimum of one month
3.4 ng/mL/mg/kg | 2.6 ng/mL/mg/kg | [16–21] ng/mL | [10–22] ng/mL | 18.6 ng/mL | 15 ng/mL | – | – | – | – | – | – | – | – | COC(=O)N[C@@H](C)CNc1nccc(-c2cn(C(C)C)nc2-c2cc(Cl)cc(NS(C)(=O)=O)c2F)n1 [Encorafenib, encorafenib] | – | Cmax = 3100 ng/mL | – | frozen stability in plasma [4]: at least 30 days
– | – | – | – | – | – | – | – | – | – | – | – | – | – | C[C@H]1Oc2cc(cnc2N)-c2c(nn(C)c2C#N)CN(C)C(=O)c2ccc(F)cc21 [Lorlatinib, lorlatinib] | – | Cmax = 575 ng/mL | – | stable in plasma ([4]; −30 °C): at least 2 months
48.8 ng/mL/mg/kg | 41.6 ng/mL/mg/kg | [51–64] ng/mL | [38–69] ng/mL | 57.4 ng/mL | 52 ng/mL | – | – | 17.5 ng/mL/mg/kg | 14.6 ng/mL/mg/kg | [37–204] ng/mL | [62–143] ng/mL | 120 ng/mL | 100 ng/mL | Cn1cnc2c(F)c(Nc3ccc(Br)cc3F)c(C(=O)NOCCO)cc21 [Binimetinib, binimetinib] | – | Cmax = 654 ng/mL | higher concentrations of binimetinib in adults | frozen stability in plasma [4]: at least 30 days
25.8 ng/mL/mg/kg | 21.7 ng/mL/mg/kg | [16–56] ng/mL | [11–47] ng/mL | 32 ng/mL | 25 ng/mL | ≥ 15% | must be prepared extemporaneously | – | – | – | – | – | – | C=CC(=O)Nc1cc(Nc2nccc(-c3c[nH]c4ccccc34)n2)c(OC)cc1N(C)CCN(C)C [AZ5104] | – | – | – | –
28.3 ng/mL/mg/kg | 14 ng/mL/mg/kg | [88–122] ng/mL | [29–114] ng/mL | 105.3 ng/mL | 53.5 ng/mL | – | – | 62.3 ng/mL/mg/kg | 19.1 ng/mL/mg/kg | [26–178] ng/mL | [15–131] ng/mL | 102.3 ng/mL | 18.4 ng/mL | CC(C)(C)c1nc(-c2cccc(NS(=O)(=O)c3c(F)cccc3F)c2F)c(-c2ccnc(N)n2)s1 [Dabrafenib, dabrafenib] | Cmin ≥ 15 ng/mL | – | not statistically different | adverse effects described [5]: Skin disorders (acneiform eruptions and rash); stable in plasma ([4]; −40 °C): more than 20 weeks
145.7 ng/mL/mg/kg | 138.1 ng/mL/mg/kg | [24–94] ng/mL | [46.5–83] ng/mL | 59.3 ng/mL | 70 ng/mL | – | – | 85.4 ng/mL/mg/kg | 62.6 ng/mL/mg/kg | [74–118] ng/mL | [34–114] ng/mL | 96.3 ng/mL | 64.3 ng/mL | O=C(c1ccc(F)c(F)c1Nc1ccc(I)cc1F)N1CC(O)([C@@H]2CCCCN2)C1 [Cobimetinib, cobimetinib] | – | Cmax = 270 ng/mL | not statistically different | stable in plasma ([4]; −40 °C): more than 20 weeks
443.8 ng/mL/mg/kg | 386.3 ng/mL/mg/kg | [11–13] ng/mL | [8–14] ng/mL | 12.4 ng/mL | 11 ng/mL | – | – | 578.4 ng/mL/mg/kg | 538.5 ng/mL/mg/kg | [11–14] ng/mL | [6.5–17] ng/mL | 12.6 ng/mL | 9.7 ng/mL | CC(=O)Nc1cccc(-n2c(=O)n(C3CC3)c(=O)c3c(Nc4ccc(I)cc4F)n(C)c(=O)c(C)c32)c1 [Trametinib, trametinib] | Cmin ≥ 10.6 ng/mL | – | significantly lower in the adult group than in the pediatric group | toxicity reported ([5]; children treated for glioma): signs of cutaneous toxicity; adverse effects described [5]: Skin disorders (acneiform eruptions and rash); minimum effective concentrations [3]: 10 ng/mL; serum stability ([4]; −20 °C): 20 months
